# Laboratory results as given in patent publication US20050118263A1, “Composition” (priority 2002, published 2005).
# Tests used:
# [1] = known from Yau et al. (1999) Neurosci Lett 277: 45-48; cited from earlier work
# [2] = tested on: patients with type 2 diabetes; assay: Withdrawals from treatment in patients with type 2 diabetes; format: in vivo, human; details: carbenoxolone alone: of 8 patients, including one hospital admission with hypokalaemia
# healthy, unmedicated men = assay: Randomised, double-blind, crossover trial in healthy men: cognitive tests at end of each phase (Example 2); format: in vivo, human; details: 4 weeks per phase, carbenoxolone 100 mg 8 hourly + amiloride 10 mg daily by mouth vs placebo + amiloride, p<0.01
# Method: 10 healthy, unmedicated men (65.5 plus/minus SD 5.5y) participated in a randomised, double-blind, crossover trial comparing carbenoxolone (100 mg 8 hourly for 4 weeks by mouth) plus amiloride (10 mg daily by mouth) with placebo (8 hourly for 4 weeks by mouth) plus amiloride (10 mg daily by mouth). Each study phase lasts 4 weeks. The two phases are separated by an 8 week washout period. The order of carbenoxolone or placebo is randomised and the subjects and the experimenters are blind to the treatment given. Participants are asked to look out for potential adverse effects of carbenoxolone, including weight gain and pedal edema, and blood pressure and plasma electrolytes are monitored weekly. Compliance is assessed by pill counting and detecting carbenoxolone in plasma by high performance liquid chromatography. At the end of each phase, tests of verbal fluency, verbal memory, visuospatial memory, attention and processing speed, and intelligence are performed. Data are mean+/−SEM for the % change in cognitive score, calculated for each individual as (score with carbenoxolone+amiloride)−(score with placebo+amiloride)/(score with placebo+amiloride)×100. P values refer to comparison of absolute data in the two groups. Statistical analysis is conducted using Mann-Witney U tests and Friedman's non-parametric ANOVAs.
# [3] = tested on: patients with type 2 diabetes; assay: Randomised double-blind placebo controlled crossover trial in type 2 diabetes patients: cognitive tests at end of each phase (Example 3); format: in vivo, human; details: 6 weeks per phase
# Method: 12 patients with type 2 diabetes by World Health Organisation criteria (age range 52-70 y, mean 60.1 y), including 3 women and 9 men, participated in a randomised double-blind placebo controlled crossover trial comparing carbenoxolone (100 mg 8 hourly for 6 weeks by mouth) plus amiloride (10 mg daily by mouth) with placebo (8 hourly for 6 weeks by mouth) plus amiloride (10 mg daily by mouth). The two phases are separated by a washout period of 8 weeks. The order of carbenoxolone or placebo is randomised and the subjects and the experimenters are blind to the treatment given. At the end of each phase, tests of verbal fluency, verbal memory, visuospatial memory, attention and processing speed and intelligence are performed.
smiles,measurement,setting,value
"CC(=O)S[C@@H]1CC2=CC(=O)CC[C@]2(C)[C@H]2CC[C@@]3(C)[C@@H](CC[C@@]34CCC(=O)O4)[C@H]12 [Spironolactone, 17-hydroxy-7-alpha-mercapto-3-oxo-17-alpha-pregn-4-ene-21-carboxylic acid gamma-lactone acetate]",unwanted effects on cognitive function,[1],reduce cognitive function
CC1(C)[C@@H](OC(=O)CCC(=O)O)CC[C@]2(C)[C@H]3C(=O)C=C4[C@@H]5C[C@@](C)(C(=O)O)CC[C@]5(C)CC[C@@]4(C)[C@]3(C)CC[C@@H]12 [carbenoxolone],withdrawals due to sodium retention,[2],3
"NC(N)=NC(=O)c1nc(Cl)c(N)nc1N [Placebo with Amiloride, 3,5-diamino-6-chloro-N-(diaminomethylene) pyrazinecarboxamide]","verbal fluency (Controlled Word Association test), mean/SD","healthy, unmedicated men",41/12
same,"Processing speed: DSST, Mean (SD)","[3]; Digit Symbol Substitution test, p 0.78",50.3 (6.7)
same,"Reasoning: RSPM, Mean (SD)","[3]; Ravens Standard Progressive Matrices, p 0.17",44.0 (6.6)
same,"Verbal memory: Rey AVLT, Mean (SD)","[3]; Rey Auditory Verbal Learning Test, p <0.01",56.1 (8.7)
same,"Verbal memory: WM Logical Memory, Mean (SD)","[3]; Wechsler Memory Scale-revised, p 0.78",49.7 (13.8)
same,"Visual memory: WM Visual reproduction, Mean (SD)","[3]; Wechsler Memory Scale-revised, p 0.94",59.9 (13.3)
same,"Executive function: Verbal Fluency, Mean (SD)",[3]; p 0.48 between phases,42.2 (8.4)
